According to patent US11905260B1, “N′-(1-naphthoyloxy)-2-(benzo[d]oxazol-2-yl)acetimidamide as an antimicrobial compound” (KING FAISAL UNIVERSITY, priority 2023, dated 2024):

Legend:
Bacillus cereus = assay: agar plate disc-diffusion, antibacterial activity by inhibition zone; format: cell-based; conditions: nutrient agar, 37° C., 48 hours
Procedure: (§1) The agar plate disc-diffusion method was applied. […] The discs were then placed onto the surface of agar plates (nutrient agar for bacteria and Sabouraud's dextrose agar for fungi) seeded with the test organism. Each plate contained 15 mL of the agar medium, previously seeded with 0.2 mL of the broth culture of each organism pregrown for 18 hours. The plates were incubated at 37° C. for 48 hours, and 72 hours for fungi. The inhibition zones was measured in mm. Discs impregnated with DMSO were used as a control, and its inhibition zone was subtracted from the tested compound actual inhibition zone.

Pseudomonas aeruginosa = assay: as above; format: cell-based; conditions: nutrient agar, 37° C., 48 hours
Procedure: as §1

Staphylococcus aureus = assay: as above; format: cell-based; conditions: nutrient agar, 37° C., 48 hours
Procedure: as §1

Escherichia coli = assay: as above; format: cell-based; conditions: nutrient agar, 37° C., 48 hours
Procedure: as §1

Aspergillus flavus = assay: agar plate disc-diffusion, antifungal activity by inhibition zone; format: cell-based; conditions: Sabouraud's dextrose agar, 72 hours
Procedure: as §1

[1] = test system: Chrysosporium keratinophilum; assay: as above; format: cell-based; conditions: Sabouraud's dextrose agar, 72 hours
Procedure: as §1

different microbes = assay: antimicrobial activity, overall statement; format: cell-based; conditions: summary in words
Procedure: The agar plate disc-diffusion method was applied. Sterilized filter papers (6 mm in diameter) were wetted with 10 μL of a solution N′-(1-naphthoyloxy)-2-(benzo[d]oxazol-2-yl)acetimidamide (3) to be tested, containing 10 mg/mL in DMSO, and the discs were allowed to air dry. The discs were then placed onto the surface of agar plates (nutrient agar for bacteria and Sabouraud's dextrose agar for fungi) seeded with the test organism. Each plate contained 15 mL of the agar medium, previously seeded with 0.2 mL of the broth culture of each organism pregrown for 18 hours. The plates were incubated at 37° C. for 48 hours, and 72 hours for fungi. The inhibition zones was measured in mm. Discs impregnated with DMSO were used as a control, and its inhibition zone was subtracted from the tested compound actual inhibition zone.

[2] = A = concentration of comp. = 10,000 μL
[3] = B = concentration of comp. = 30,000 μL
[4] = C = concentration of comp. = 50,000 μL

N/C(Cc1nc2ccccc2o1)=N\OC(=O)c1cccc2ccccc12 [compound 3, N′-(1-naphthoyloxy)-2-(benzo[d]oxazol-2-yl)acetimidamide]
inhibition zone, Bacillus Cereus (Bacillus cereus; [2]): 23 mm
inhibition zone, Bacillus Cereus (Bacillus cereus; [3]): 27 mm
inhibition zone, Bacillus Cereus (Bacillus cereus; [4]): 36 mm
inhibition zone, Pseudomonas aeruginosa (Pseudomonas aeruginosa; [2]): 22 mm
inhibition zone, Pseudomonas aeruginosa (Pseudomonas aeruginosa; [3]): 24 mm
inhibition zone, Pseudomonas aeruginosa (Pseudomonas aeruginosa; [4]): 38 mm
inhibition zone, Staphylococcus aureus (Staphylococcus aureus; [2]): 26 mm
inhibition zone, Staphylococcus aureus (Staphylococcus aureus; [3]): 30 mm
inhibition zone, Staphylococcus aureus (Staphylococcus aureus; [4]): 38 mm
inhibition zone, Escherichia coli (Escherichia coli; [2]): 27 mm
inhibition zone, Escherichia coli (Escherichia coli; [3]): 34 mm
inhibition zone, Escherichia coli (Escherichia coli; [4]): 51 mm
melting point: 131 to 132 °C
inhibition zone, Aspergillus flavus (Aspergillus flavus; [2]): 24 mm
inhibition zone, Aspergillus flavus (Aspergillus flavus; [3]): 26 mm
inhibition zone, Aspergillus flavus (Aspergillus flavus; C =): 37 mm
inhibition zone, Chrysosporium keratinophilum [1, 2]: 27 mm
inhibition zone, Chrysosporium keratinophilum [1, 3]: 30 mm
inhibition zone, Chrysosporium keratinophilum [1, 4]: 51 mm
antimicrobial activities against different microbes (different microbes): excellent antimicrobial activities
